The text below walks through data of patent US20090036489A1, “Novel Cyclic Aminophenylalkanoic Acid Derivative” (priority 2005, published 2009).

pEC50: −log10 of the molar value.

This test addresses T1, human PPARα (Homo sapiens, UniProt Q07869).
T1 construct: expressed in transfected cells; host or cells: CHO-K1
T1 sequence (Q07869 239-466 limits assumed): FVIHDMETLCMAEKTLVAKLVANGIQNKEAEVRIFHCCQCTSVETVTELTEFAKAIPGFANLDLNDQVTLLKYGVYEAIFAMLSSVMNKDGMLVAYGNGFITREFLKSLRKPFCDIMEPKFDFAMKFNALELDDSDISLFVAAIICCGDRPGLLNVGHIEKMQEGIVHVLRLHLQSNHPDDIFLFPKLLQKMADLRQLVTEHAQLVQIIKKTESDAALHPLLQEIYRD
The test can be described thus: Activation of human PPARα: GAL4-PPARα LBD luciferase reporter transactivation in CHO-K1 cells. The test is classed as cell-based. The note with it: CHO-K1 cells co-transfected with GAL4 DNA-binding domain/human PPARα ligand-binding domain fusion, firefly luciferase reporter normalized to Renilla; 20 hours with test compound. An excerpt: Activation of Human Peroxisome Proliferator-Activated Receptor α (PPARα)
CHO-K1 cells cultured in Ham's F12 medium supplemented with 10% fetal calf serum (FCS) were co-transfected with a receptor-expression plasmid engineered to express a fusion protein in which the DNA-binding domain of yeast transcription factor GAL4 is fused to the ligand-binding domain of human PPARα (Biochemistry, 1993, 32, 5598), a reporter plasmid (firefly luciferase reporter plasmid, STRATAGENE) and a Renilla luciferase reporter plasmid as an internal control. The plasmids were co-transfected for 2 hours in serum-free medium using Lipofectamine (Invitrogen). Subsequently, the cells were cultured at 37° C. for 20 hours in Ham's F12 medium supplemented with 10% defatted bovine serum and a test compound. The activity of the two luciferases was then measured and firefly luciferase activity was normalized to the internal control Renilla luciferase activity.
(A reporter such as luciferase makes a cellular process visible.)

One may read the pEC50 as the EC50 on a negative log10 scale, so that one unit is a factor of ten. Consider `Cc1nc(-c2ccc(Cl)cc2)sc1C(=O)NCC1CCCN(c2ccccc2CC(=O)O)C1` (stereo not shown) [Example 8, 2-[3-[[2-(4-chlorophenyl)-4-methylthiazol-5-yl]carbonylaminomethyl]piperidin-1-yl]phenylacetic Acid], for which the pEC50 was 10.00.

With `Cc1nc(-c2ccc(Cl)cc2)sc1C(=O)NCC1CCCN(c2cccc(CC(=O)O)c2)C1` (stereo not shown) [Example 9, 3-[3-[[2-(4-chlorophenyl)-4-methylthiazol-5-yl]carbonylaminomethyl]piperidin-1-yl]phenylacetic acid], the pEC50 was 7.35.

`Cc1nc(-c2ccc(Cl)cc2)sc1C(=O)NC1CCCN(c2cccc(CC(=O)O)c2)C1` (stereo not shown) [Example 11, 3-[3-[[2-(4-chlorophenyl)-4-methylthiazol-5-yl]carbonylamino]piperidin-1-yl]phenylacetic acid] gave a pEC50 of 7.43.

`Cc1nc(-c2ccc(Cl)cc2)sc1C(=O)NC1CCCN(c2cccc(OC(C)(C)C(=O)O)c2)C1` (stereo not shown) [Example 14, 2-[3-[3-[[2-(4-chlorophenyl)-4-methylthiazol-5-yl]carbonylamino]piperidin-1-yl]phenoxy]-2-methylpropionic acid]: the pEC50 was 7.17.
